According to patent publication US12721808B2, “Orris root extracts, compositions, and methods for skin applications” (ACCESS BUSINESS GROUP INTERNATIONAL LLC, priority 2021, dated 2026):

Tested on: B16-F10 (B16) cells
Assay: Bioassay Directed Fractionation (BDF) with B16 cell culture pigmentation assay
Format: cell-based
Conditions: LC fraction (20 sec) of Orris root extract corresponding to the compound's peak, FIG. 2
Experimental: Sample extracts were prepared at 50 mg/ml in DMSO and sonicated for 20 min. Samples solutions were then filtered through 0.2 μm Whatman Anotop 25 syringe filter into autosampler vials for assay. The LC-MS system was modified to incorporate a 10:1 splitter that was positioned between the UV detector and MS ion source. The majority of LC effluent was directed to a Waters Fraction Collector II fitted with a 96-deep well plate into which fractions were collected by time at intervals of 20 sec/well for the first 32 minutes of each run (96 wells/run). The LC column was a XBridge Shield RP18, 5 μm, 4.6×250 mm maintained at ambient temperature (22° C.). The solvent program was ramped linearly as follows: 95% A/5% B at time 0, to 100% B at 30 min, hold at 100% B to 32 min, then to 95% A/5% B at 32.1 min and hold 95% A/5% B until 36 min. The flow rate was 0.8 mL/min and an injection volume of […] was used (0.5 mg solids/injection). Effluent from four consecutive LC runs was collected per plate (2 mg solids/plate). Plates were then dried under nitrogen at 40° C. to remove acetonitrile and residual water was removed by freeze drying. Plates were stored at −80° C. until to assayed for pigmentation response.
The results of the BDF are shown in FIG. 2, with LC-UV chromatogram A at 260 nm showing phytochemical peak profile, and time-aligned bar graph B (with each bar representing a fraction from the LC effluent collected for 20 seconds), showing pigmentation responses using B16 cell culture assay.
Primary cells and cell lines were grown in a humidified atmosphere of 5% CO2 at 37° C. […]
B16 cells (6000 cells/well) were pre-cultured in 96-well plates in DMEM medium supplemented with 10% FBS and 1% P/S for 24 hours. […] The absorbance at 405 nm was measured, and MTT (3-(4,5-dimethylthiazol-2-yl)-2,5-diphenyltetrazolium bromide) assay was performed to examine the viability of cells. […]

SMILES | pigmentation response
CC1=CC[C@H](C)C(C)(C)[C@@H]1/C=C/C(C)=C/CC[C@@]1(CO)[C@H](CCCO)/C(=C(/C)C=O)CC[C@]1(C)O [iripallidal, Iripallidal] | reduced pigmentation
C=C1CC[C@H](C)C(C)(C)[C@@H]1/C=C/C(C)=C/CC[C@@]1(CO)[C@H](CCCO)/C(=C(/C)C=O)CC[C@]1(C)O [iriflorental, Iriflorental] | reduced pigmentation
COc1c2c(cc3occ(-c4ccc(O[C@@H]5O[C@H](CO)[C@@H](O)[C@H](O)[C@H]5O)cc4)c(=O)c13)OCO2 [germanaism B, Germanaism B] | Increased pigmentation
